The values that follow come from patent US20140296266A1, “THERAPEUTIC COMPOUNDS” (Gilead Sciences, Inc., priority 2013, published 2014).

In general, CC50 refers to the concentration that lowers cell viability or growth by half. The term % inhibition denotes the drop in the measured response relative to a control, in per cent.

One data set deals with HIV-IIIb. The experiment in a line: Test A: Antiviral Assay in MT4 Cells. The format is cell-based, HIV-1. To be noted: MT-4 cells mixed with HIV-IIIb (m.o.i. 0.003), 5 days, CellTiter-Glo, calculated from the dose response curve; for inhibition at 2 µM: Human immunodeficiency virus 1, IIIB, MT4, 120 h, read-out: % inhibition at 2 μM (percent inhibition of virus-induced cell killing), 2 μM drug concentration. The method, then: (§1) For the antiviral assay, 40 μL of 1× test concentration of 3-fold serially diluted compound in culture medium with 10% FBS was added to each well of a 384-well plate (10 concentrations) in quadruplicate. MT-4 cells were next mixed with HIV-IIIb at an m.o.i of 0.003 for 1 hour, after which time 35 μL of virus/cell mixture (2000 cells) was immediately added to each well containing 40 μL of diluted compound. The plates were then incubated at 37° C. for 5 days. After 5 days of incubation, 25 μl of 2× concentrated CellTiter-Glo™ Reagent (catalog #G7571, Promega Biosciences, Inc., Madison, Wis.) was added to each well containing MT-4 cells. Cell lysis was carried out by incubating at room temperature for 10 min and then chemiluminescence was read.

Data set [1] is described as follows: Test B: Cytotoxicity Assay. To be noted: human, uninfected MT-4 cells, same protocol as Test A, CellTiter-Glo. The format is cell-based. The method, then: as §1
Compound cytotoxicity and the corresponding CC50 values was determined using the same protocol as described in the antiviral assay (Test A) except that uninfected cells were used.
(In general: ATP-based viability assays read luminescence as a measure of living cells.)

Each structure is given as a SMILES string. Some results are limits rather than exact numbers.

With `O=C(Cn1nc(C(F)F)c2c1C(F)(F)CCC2(F)F)N[C@@H](Cc1cc(F)cc(F)c1)c1ncc(-c2cnc3[nH]ccc3c2)cc1-c1cnc2[nH]ccc2c1` [Compound 11, (S)—N-(1-(3,5-di(1H-pyrrolo[2,3-b]pyridin-5-yl)pyridin-2-yl)-2-(3,5-difluorophenyl)ethyl)-2-(3-(difluoromethyl)-4,4,7,7-tetrafluoro-4,5,6,7-tetrahydro-1H-indazol-1-yl)acetamide], the inhibition at 2 µM with HIV-IIIb is 66%. Also, the CC50 at 5 days in data set [1] was > 53.2 µM. In the same order, the values of `CC(C)(O)C#Cc1ccc(-c2ccc3c(c2)C(=O)NC32CC2)c([C@H](Cc2cc(F)cc(F)c2)NC(=O)Cn2nc(C(F)(F)F)c3c2C(F)(F)[C@@H]2C[C@H]32)n1` [Compound 3D, 2-((3bS,4aR)-5,5-difluoro-3-(trifluoromethyl)-3b,4,4a,5-tetrahydro-1H-cyclopropa[3,4]cyclopenta[1,2-c]pyrazol-1-yl)-N—((S)-2-(3,5-difluorophenyl)-1-(6-(3-hydroxy-3-methylbut-1-yn-1-yl)-3-(3′-oxospiro[cyclopropane-1,1′-isoindolin]-5′-yl)pyridin-2-yl)ethyl)acetamide] are 82% and 4.15 µM.

In the case of `O=C(Cn1nc(C(F)F)c2c1C(F)(F)CCC2(F)F)N[C@@H](Cc1cc(F)cc(F)c1)c1nc(-c2cc[nH]c(=O)c2)ccc1-c1cc[nH]c(=O)c1` [Compound 13, (S)-2-(3-(difluoromethyl)-4,4,7,7-tetrafluoro-4,5,6,7-tetrahydro-1H-indazol-1-yl)-N-(2-(3,5-difluorophenyl)-1-(2,2″-dioxo-1,1″,2,2″-tetrahydro-[4,2′:5′,4″-terpyridin]-6′-yl)ethyl)acetamide], the inhibition at 2 µM with HIV-IIIb is 0%. Also, the cytotoxic concentration (CC50) at 5 days in data set [1] is > 53.2 µM. On the same counts, the results for `CC(C)(O)C#Cc1ccc(-c2cccc3c2CNC3=O)c([C@H](Cc2cc(F)cc(F)c2)NC(=O)Cn2nc(C(F)(F)F)c3c2C(F)(F)[C@@H]2C[C@H]32)n1` [Compound 14E, 2-((3bS,4aR)-5,5-difluoro-3-(trifluoromethyl)-3b,4,4a,5-tetrahydro-1H-cyclopropa[3,4]cyclopenta[1,2-c]pyrazol-1-yl)-N—((S)-2-(3,5-difluorophenyl)-1-(6-(3-hydroxy-3-methylbut-1-yn-1-yl)-3-(1-oxoisoindolin-4-yl)pyridin-2-yl)ethyl)acetamide] are 89% and 6.82 µM.

Regarding `O=C(Cn1nc(C(F)F)c2c1C(F)(F)CCC2(F)F)N[C@@H](Cc1cc(F)cc(F)c1)c1nc(-c2c[nH]nn2)ccc1-c1cnc2[nH]ccc2c1` [Compound 16C], the “% inhibition at 2 μM (percent inhibition of virus-induced cell killing)” value with HIV-IIIb (2 μM drug concentration) was 65%.

Regarding `CC(C)(O)C#Cc1ccc(-c2ccc(F)c(C(N)=O)c2)c([C@H](Cc2cc(F)cc(F)c2)NC(=O)Cn2nc(C(F)(F)F)c3c2C(F)(F)[C@@H]2C[C@H]32)n1` [Compound 18, 5-(2-((S)-1-(2-((3bS,4aR)-5,5-difluoro-3-(trifluoromethyl)-3b,4,4a,5-tetrahydro-1H-cyclopropa[3,4]cyclopenta[1,2-c]pyrazol-1-yl)acetamido)-2-(3,5-difluorophenyl)ethyl)-6-(3-hydroxy-3-methylbut-1-yn-1-yl)pyridin-3-yl)-2-fluorobenzamide], the CC50 at 5 days in data set [1] amounted to 6.93 µM. The same measure, in the same setting: with `NC(=O)c1cc(-c2ccc(-c3ccc(F)c(C(N)=O)c3)c([C@H](Cc3cc(F)cc(F)c3)NC(=O)Cn3nc(C(F)F)c4c3C(F)(F)CCC4(F)F)n2)ccc1F` [Compound 5G, (S)-5,5′-(6-(1-(2-(3-(difluoromethyl)-4,4,7,7-tetrafluoro-4,5,6,7-tetrahydro-1H-indazol-1-yl)acetamido)-2-(3,5-difluorophenyl)ethyl)pyridine-2,5-diyl)bis(2-fluorobenzamide)] the figure was > 53.2 µM.
